Test results published in US20210300936A1, “PYRAZOLOTRIAZOLOPYRIMIDINE DERIVATIVES AS A2A RECEPTOR ANTAGONIST” (BEIGENE, LTD., priority 2018, published 2021).
Where two headings read alike, the source gives them in different places.

Legend:
[1] = biological target: T1, human adenosine receptor A1 (A1R) (Homo sapiens, UniProt P30542); experiment: Adenosine receptor binding assay, radioligand competitive binding, [3H]DPCPX; conditions: membrane homogenates from CHO cells transfected with A1R, 1 nM [3H]DPCPX
T1 construct: host or cells: CHO cells (membrane homogenates)
T1 sequence (P30542 1-326): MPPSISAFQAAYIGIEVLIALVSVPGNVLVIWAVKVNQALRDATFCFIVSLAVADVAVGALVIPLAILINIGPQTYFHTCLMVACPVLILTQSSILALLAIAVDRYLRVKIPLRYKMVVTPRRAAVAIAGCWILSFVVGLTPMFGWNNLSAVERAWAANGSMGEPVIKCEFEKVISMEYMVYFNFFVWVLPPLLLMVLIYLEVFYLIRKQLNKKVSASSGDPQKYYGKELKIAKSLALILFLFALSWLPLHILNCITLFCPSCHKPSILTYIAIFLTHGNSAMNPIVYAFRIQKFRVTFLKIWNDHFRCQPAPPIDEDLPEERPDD
Method: (§1) Binding affinity of test compounds to four human adenosine receptors, A1, A2A, A2B and A3 was determined in radioligand competitive binding assay (conducted by Cerep, France) using following protocols. For A1 receptor (A1R), membrane homogenates from CHO cells transfected with A1R were incubated for 60 min at 22° C. with 1 nM [3H]DPCPX in the absence or presence of the test compound in a buffer containing 50 mM Tris-HCl (pH 7.4), 5 mM MgCl2, 1 mM EDTA/Tris and 2 UI/mL ADA. For A2AR, membrane homogenates from HEK293 cells transfected with A2AR were incubated for 120 min at 22° C. with 6 nM [3H]CGS21680 in the absence or presence of the test compound in a buffer containing 50 mM Tris-HCl (pH 7.4), 10 mM MgCl2, and 2 UI/mL ADA. For A2B receptor (A2BR), membrane homogenates from HEK293 cells transfected with A2BR were incubated for 60 min at 22° C. with 5 nM [3H]CPX in the absence or presence of the test compound in a buffer containing 10 mM Hepes/Tris (pH 7), 1 mM MgCl2, and 1 mM EDTA. For A3 receptor (A3R), membrane homogenates from HEK293 cells transfected with A3R were incubated for 120 min at 22° C. with 0.15 nM [125I]AB-MECA in the absence or presence of the test compound in a buffer containing 50 mM Tris-HCl (pH 7.4), 5 mM MgCl2, 1 mM EDTA and 2 UI/mL ADA. Nonspecific binding was determined in the presence of unlabeled 1 μM DPCPX, 10 μM NECA, 100 μM NECA, and 1 μM IB-MECA in A1R, A2AR, A2BR, A3R binding assays, respectively. Following incubation, the samples are rapidly filtered and washed with ice-cold 50 mM Tris-HCl. Then filters are dried and counted for radioactivity in a scintillation counter (Topcount, Packard) using a scintillation cocktail (Microscint 0, Packard). Duplicate experiments were performed for each assay. The results are expressed as a percent inhibition of control radioligand specific binding.

[2] = biological target: human A2A receptor (A2AR) (Homo sapiens, UniProt P29274); experiment: Luciferase reporter assay (HEK293-A2AR-luc2p/CRE/Hygro cells, 3 nM CGS21680); assay type: cell-based; conditions: 3 nM CGS21680, 5 h incubation
Chain of human A2A receptor (A2AR) (P29274 whole entry): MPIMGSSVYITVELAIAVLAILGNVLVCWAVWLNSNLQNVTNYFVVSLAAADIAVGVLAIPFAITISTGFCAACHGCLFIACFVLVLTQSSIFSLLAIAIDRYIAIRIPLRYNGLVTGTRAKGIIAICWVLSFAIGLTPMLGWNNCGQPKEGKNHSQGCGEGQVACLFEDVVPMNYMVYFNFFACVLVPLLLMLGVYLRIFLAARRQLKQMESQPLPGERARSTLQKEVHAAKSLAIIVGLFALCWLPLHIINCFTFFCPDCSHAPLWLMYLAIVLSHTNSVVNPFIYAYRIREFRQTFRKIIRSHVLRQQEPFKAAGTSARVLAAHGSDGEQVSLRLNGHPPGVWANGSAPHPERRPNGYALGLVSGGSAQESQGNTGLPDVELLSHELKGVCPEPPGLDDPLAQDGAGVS
In short: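 Antagonist (0.1–10000 nM) and 3 nM CGS21680 were co-added for 5 h to stable HEK293-A2AR-luc2p/CRE cells, 18 h after seeding in 1% FBS medium containing adenosine deaminase. Luminescence was normalized to agonist alone (100%), and IC50 came from the dose–inhibition curve.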

[3] = Mouse BBB assay; assay type: in vivo; conditions: oral 10 mg/kg
Method: Mice were acclimated for 1 week prior to use at 18-30 g body weight. Fasted mice were dosed orally at 10 mg/kg dose. At 1, 2 and 4 hours postdose, plasma samples from cardiac blood collected in tubes containing K2EDTA as the anticoagulant, and excised cerebral hemispheres were immediately frozen and stored at −80° C. until bioanalysis. Total concentrations of the compound were determined by LC-MS/MS. Brain homogenate concentrations were converted to brain concentrations for the calculations of brain-to-plasma ratios.

[4] = biological target: T2, human adenosine receptor A2A (A2AR) (Homo sapiens, UniProt P29274); experiment: Adenosine receptor binding assay, radioligand competitive binding, [3H]CGS21680; conditions: membrane homogenates from HEK293 cells transfected with A2AR, 6 nM [3H]CGS21680
T2 construct: host or cells: HEK293 cells (membrane homogenates)
T2 sequence (P29274 whole entry): as above
Method: as §1

With `COCCOc1ccc(N2CCN(C(=O)C(c3ccccc3)n3ncc4c3nc(N)n3nc(-c5ccco5)nc43)CC2)cc1` (single isomer, unassigned) [Compound A13b] the Ki [1] was 42 nM, the IC50 [2] was 0.8 nM and the concentration at 1 h ([3]; brain, read-out: Brain) was 54 ng/g. The concentration at 1 h ([3]; plasma, read-out: Plasma) was 2440 ng/mL and the Ki [4] was 0.92 nM.
